Article PMC10104807, “Modulation of tau tubulin kinases (TTBK1 and TTBK2) impacts ciliogenesis” (Scientific Reports, 2023)
Read-outs that look alike come from different tables or passages of the source.

Key:
[1] = target: T1, NLuc-TTBK1 (Homo sapiens, UniProt Q5TCY1); test: TTBK1 NanoBRET cellular target engagement assay in HEK293 cells; type: cell-based; details: 2 μM tracer 29
T1 construct: host or cells: HEK293
Protocol: HEK293 cells were transfected with constructs of TTBK1 or TTBK2 tagged with NLuc on the N- or C-terminus as previously described[43] Constructs for NanoBRET measurements of TTBK1 (NLuc-TTBK1 and TTBK1-NLuc) and TTBK2 (NLuc-TTBK2 and TTBK2-NLuc) were kindly provided by Promega. NLuc orientations used in the respective assays are indicated. Cells were plated in 96-well tissue culture treated plates (Corning 3917) at a cell density of 2 × 10^5 cells/mL, with a total volume of 100 μL per well in DMEM. […] NanoBRET plates were read after addition of 50 μL of a stock solution (3X) containing NanoBRET NanoGlo substrate (Promega N2161), extracellular NanoLuc inhibitor (Promega N2161) and Opti-MEM. For a 96-well plate the 3X stock solution was prepared with 30 μL of NanoBRET NanoGlo substrate, 10 μL of extracellular NanoLuc inhibitor, and 4960 μL of Opti-MEM without phenol red. […] HEK293 cells were transfected with NLuc-TTBK1 or NLuc-TTBK2. […] One biological replicate was plotted in GraphPad Prism with log[inhibitor] vs. response (three parameters) and included in Fig. 3C. NanoBRET assays were carried out in dose-response format as described previously. NLuc orientations used in the respective assays are as follows: NLuc-TTBK1, NLuc-TTBK2, and PIP4K2C-NLuc (for PI5[…]γ). […] Data are reported as IC50 ± standard error mean (SEM). For PI5[…]γ, 9 was tested in 12-point dose-response format with a top concentration of 10 μM (data in Table S2). One biological replicate was plotted in GraphPad Prism with log[inhibitor] vs. response (three parameters).

[2] = target: 17-member enzymatic kinase assay panel; test: 17-member enzymatic kinase panel, number of kinases inhibited; type: biochemical; details: 1 μM; of 17 kinases
[3] = target: T2, PIP5K1C (Homo sapiens, UniProt O60331); test: DiscoverX scanMAX binding assay; details: 1 μM
T2 construct: purchased Eurofins (radiometric) / Eurofins DiscoverX scanMAX / Reaction Biology / SignalChem
From the text: (§1) This panel includes 403 wild-type (WT) human kinases but not TTBK1/2. […] Substantial overlap between the MRC and DiscoverX scanMAX kinase panels allows the comparison of results for the same kinases in two different assay formats (enzymatic versus binding, respectively) at the same concentration. Selectivity results are included in two columns within Table 1. […] The rightmost column converts this selectivity score into the number of kinases with a PoC < 10 in the scanMAX panel.
(§2) The Eurofins DiscoverX Corporation scanMAX assay platform was employed to assess the selectivity of specific analogs at a single concentration (1 µM). As described previously, this assay platform profiles a compound against 403 wild-type human kinases and delivers percent of control (PoC) values. These percent of control values are included in Table 1 and corresponding kinome tree diagrams as well as tables for each analog included in Fig. S1.

[4] = target: T3, TAOK3 (Homo sapiens, UniProt Q9H2K8); test: DiscoverX scanMAX binding assay; details: for TAOK3 % control at 1000nM: 1 μM
T3 construct: purchased Eurofins (radiometric) / Eurofins DiscoverX scanMAX / Reaction Biology / SignalChem
T3 sequence (Q9H2K8 1-898): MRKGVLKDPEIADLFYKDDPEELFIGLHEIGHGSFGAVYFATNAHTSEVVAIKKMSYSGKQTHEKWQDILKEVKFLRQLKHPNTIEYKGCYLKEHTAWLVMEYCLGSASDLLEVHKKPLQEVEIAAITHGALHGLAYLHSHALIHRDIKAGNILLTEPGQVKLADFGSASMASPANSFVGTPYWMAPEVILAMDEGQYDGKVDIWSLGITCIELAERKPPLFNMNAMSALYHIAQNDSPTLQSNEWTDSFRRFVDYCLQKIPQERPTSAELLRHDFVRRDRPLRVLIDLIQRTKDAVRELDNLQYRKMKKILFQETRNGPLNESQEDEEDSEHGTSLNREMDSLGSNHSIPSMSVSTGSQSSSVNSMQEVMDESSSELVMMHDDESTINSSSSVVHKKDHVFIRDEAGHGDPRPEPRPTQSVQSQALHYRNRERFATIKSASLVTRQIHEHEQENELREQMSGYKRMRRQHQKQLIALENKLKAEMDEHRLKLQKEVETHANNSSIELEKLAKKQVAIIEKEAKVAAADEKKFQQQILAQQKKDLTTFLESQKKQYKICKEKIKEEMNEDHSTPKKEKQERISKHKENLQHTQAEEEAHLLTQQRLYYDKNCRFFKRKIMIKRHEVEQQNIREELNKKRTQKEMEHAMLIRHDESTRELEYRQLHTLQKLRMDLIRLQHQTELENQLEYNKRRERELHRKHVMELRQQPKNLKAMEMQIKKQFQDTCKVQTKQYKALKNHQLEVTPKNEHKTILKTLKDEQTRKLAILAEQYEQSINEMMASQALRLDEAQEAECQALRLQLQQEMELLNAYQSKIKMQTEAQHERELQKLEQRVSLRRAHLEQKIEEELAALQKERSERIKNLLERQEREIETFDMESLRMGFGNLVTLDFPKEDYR
From the text: as §1, §2

[5] = target: T4, PIP5K2C (Homo sapiens, UniProt Q8TBX8); test: DiscoverX scanMAX binding assay; details: 1 μM
T4 construct: purchased Eurofins (radiometric) / Eurofins DiscoverX scanMAX / Reaction Biology / SignalChem
T4 sequence (Q8TBX8 1-421): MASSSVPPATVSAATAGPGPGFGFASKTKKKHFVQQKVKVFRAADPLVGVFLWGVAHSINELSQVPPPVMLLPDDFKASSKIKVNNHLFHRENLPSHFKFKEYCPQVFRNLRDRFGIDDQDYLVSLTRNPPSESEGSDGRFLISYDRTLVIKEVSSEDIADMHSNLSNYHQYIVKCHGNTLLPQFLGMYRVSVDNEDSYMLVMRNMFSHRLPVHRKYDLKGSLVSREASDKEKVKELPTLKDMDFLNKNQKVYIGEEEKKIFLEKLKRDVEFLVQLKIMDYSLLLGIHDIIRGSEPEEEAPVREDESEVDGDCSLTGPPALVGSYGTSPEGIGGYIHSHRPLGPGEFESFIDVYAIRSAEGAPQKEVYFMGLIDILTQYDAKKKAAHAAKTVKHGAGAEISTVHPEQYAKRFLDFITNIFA
From the text: as §1, §2

[6] = intact HEK293 cells, read-out: TTBK1 intact cell NB IC50
[7] = permeabilized HEK293 cells (digitonin), read-out: TTBK1 permeabilized cell NB IC50

T2 sequence (O60331 whole entry): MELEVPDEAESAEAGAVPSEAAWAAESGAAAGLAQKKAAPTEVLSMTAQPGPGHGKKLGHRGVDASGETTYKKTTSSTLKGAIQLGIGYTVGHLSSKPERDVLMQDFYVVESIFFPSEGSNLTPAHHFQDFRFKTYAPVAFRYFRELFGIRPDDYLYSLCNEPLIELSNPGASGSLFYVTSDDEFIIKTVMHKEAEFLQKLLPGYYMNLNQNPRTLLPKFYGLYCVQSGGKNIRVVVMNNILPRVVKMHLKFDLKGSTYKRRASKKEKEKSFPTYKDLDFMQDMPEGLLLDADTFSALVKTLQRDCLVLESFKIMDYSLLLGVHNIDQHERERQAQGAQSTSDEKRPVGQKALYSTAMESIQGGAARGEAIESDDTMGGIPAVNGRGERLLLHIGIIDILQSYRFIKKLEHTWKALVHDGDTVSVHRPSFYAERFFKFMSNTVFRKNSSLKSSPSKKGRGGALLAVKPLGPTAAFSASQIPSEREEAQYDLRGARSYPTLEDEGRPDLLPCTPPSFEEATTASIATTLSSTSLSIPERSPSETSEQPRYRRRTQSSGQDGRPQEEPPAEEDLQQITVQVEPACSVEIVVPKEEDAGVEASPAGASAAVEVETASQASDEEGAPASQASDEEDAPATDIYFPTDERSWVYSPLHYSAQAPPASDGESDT
T1 sequence (Q5TCY1 whole entry): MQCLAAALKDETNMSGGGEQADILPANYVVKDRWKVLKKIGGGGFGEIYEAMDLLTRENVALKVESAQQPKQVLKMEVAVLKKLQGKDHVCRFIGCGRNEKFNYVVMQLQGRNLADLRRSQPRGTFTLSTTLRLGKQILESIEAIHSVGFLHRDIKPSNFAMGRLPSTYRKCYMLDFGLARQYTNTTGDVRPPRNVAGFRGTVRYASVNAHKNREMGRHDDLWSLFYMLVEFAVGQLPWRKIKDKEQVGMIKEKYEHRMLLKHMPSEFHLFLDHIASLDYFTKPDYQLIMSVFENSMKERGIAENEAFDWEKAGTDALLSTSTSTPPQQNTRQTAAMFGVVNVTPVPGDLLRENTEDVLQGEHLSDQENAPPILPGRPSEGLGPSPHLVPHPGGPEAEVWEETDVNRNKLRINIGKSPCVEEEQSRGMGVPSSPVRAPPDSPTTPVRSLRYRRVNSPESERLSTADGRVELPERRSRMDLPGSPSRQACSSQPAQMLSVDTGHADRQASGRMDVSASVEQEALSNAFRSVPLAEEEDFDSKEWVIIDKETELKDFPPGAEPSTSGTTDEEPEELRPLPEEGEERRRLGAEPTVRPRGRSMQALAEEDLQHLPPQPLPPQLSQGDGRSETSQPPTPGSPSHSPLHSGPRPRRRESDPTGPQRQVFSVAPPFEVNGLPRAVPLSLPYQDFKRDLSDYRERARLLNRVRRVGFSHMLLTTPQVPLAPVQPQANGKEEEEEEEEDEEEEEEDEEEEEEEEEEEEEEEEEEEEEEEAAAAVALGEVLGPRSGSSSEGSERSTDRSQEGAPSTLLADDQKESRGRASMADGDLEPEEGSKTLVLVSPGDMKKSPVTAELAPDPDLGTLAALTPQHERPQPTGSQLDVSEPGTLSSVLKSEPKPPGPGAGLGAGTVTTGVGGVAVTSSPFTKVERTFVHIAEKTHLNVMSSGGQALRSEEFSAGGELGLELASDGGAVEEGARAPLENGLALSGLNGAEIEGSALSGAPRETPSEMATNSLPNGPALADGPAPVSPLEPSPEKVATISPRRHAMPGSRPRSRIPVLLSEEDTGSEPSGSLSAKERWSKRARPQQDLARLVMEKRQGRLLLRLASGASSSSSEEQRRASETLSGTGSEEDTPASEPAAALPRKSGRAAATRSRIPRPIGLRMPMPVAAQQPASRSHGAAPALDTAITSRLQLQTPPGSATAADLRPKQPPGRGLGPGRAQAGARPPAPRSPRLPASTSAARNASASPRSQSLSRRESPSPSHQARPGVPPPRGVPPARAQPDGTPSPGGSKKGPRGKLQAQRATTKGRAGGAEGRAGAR

`COC(C)(C)C#Cc1ccc2[nH]c3c(c2c1)-c1nc(N)ncc1CCC3` [Compound 11] was tested, and the IC50 [1, 6] was greater than 30 µM, the IC50 [1, 7] was greater than 30 µM and the “# kinases < 10 PoC in enzyme panel” value [2] was 1.
With `CC(C)(O)C#Cc1ccc2[nH]cc(-c3ccnc(N)n3)c2c1` [Compound 3] the “PIP5K1C % control at 1000nM / DiscoverX PoC value” [3] was 0.4 % control, the “TAOK3 % control at 1000nM” value [4] was 0.4 % control and the “PIP5K2C (PI5P4Kγ) % control at 1000nM / DiscoverX PoC value” [5] was 0.2 % control. For the same compound, the “# kinases < 10 PoC in enzyme panel” value [2] was 3.
For `CC(C)(O)C#Cc1ccc2[nH]c3c(c2c1)-c1nc(N)ncc1CC3` [Compound 1], the “PIP5K1C % control at 1000nM / DiscoverX PoC value” [3] was 0.5 % control, the “TAOK3 % control at 1000nM” value [4] was 1.5 % control and the “PIP5K2C (PI5P4Kγ) % control at 1000nM / DiscoverX PoC value” [5] was 0 % control. The IC50 [1, 6] was greater than 30 µM, the IC50 [1, 7] was 2.5 µM and the “# kinases < 10 PoC in enzyme panel” value [2] was 2.
With `CC(C)(O)C#Cc1ccc2[nH]c3c(c2c1)-c1nc(N)ncc1CCC3` [AMG28, reference compound] the “PIP5K1C % control at 1000nM / DiscoverX PoC value” [3] was 3.1 % control, the kinase binding, percent of control at 1 µM ([4]; read-out: TAOK3 % control at 1000nM) was 1.8% and the “PIP5K2C (PI5P4Kγ) % control at 1000nM / DiscoverX PoC value” [5] was 3.1 % control.
With `CC(C)(O)C#Cc1ccc2[nH]c3c(c2c1)-c1nc(N)ncc1CCCC3` [Compound 2] the IC50 [1, 6] was greater than 30 µM, the IC50 [1, 7] was 19 µM and the “# kinases < 10 PoC in enzyme panel” value [2] was 1.
